Entries after “also recorded” stand apart in the source; their conditions may differ. Strand notation (5' to 3'): a small letter for the sugar, then the base; units joined by * are phosphorothioate-linked, units joined directly phosphodiester-linked; [ ] holds rarer units or linkages, { } end groups; capitals alone tell only the bases. [5IU] = 5-iodo-2'-deoxyuridine; [HEG] = Spacer 18, hexaethylene glycol phosphate; [TEG] = Spacer 9, triethylene glycol phosphate; [2doub] = Doubler2 branching unit (Chemgenes); [6NB] = 6-nitro-benzimidazol nucleoside; [5BrU] = 5-bromo-2'-deoxyuridine (BU); [5mC] = 5-methylcytosine; d = 2'-deoxy (DNA); m = 2'-O-methyl
The substances below were run against T1, human TLR9 (Homo sapiens, UniProt Q9NR96) (assay: TLR9 luciferase assay (NF-κB reporter) in hTLR9-LUC-293 cells). Details: 16 h, stated in words relative to the comparator ODN.
T1 construct: expressed in transfected cells
T1 sequence (Q9NR96 26-1032): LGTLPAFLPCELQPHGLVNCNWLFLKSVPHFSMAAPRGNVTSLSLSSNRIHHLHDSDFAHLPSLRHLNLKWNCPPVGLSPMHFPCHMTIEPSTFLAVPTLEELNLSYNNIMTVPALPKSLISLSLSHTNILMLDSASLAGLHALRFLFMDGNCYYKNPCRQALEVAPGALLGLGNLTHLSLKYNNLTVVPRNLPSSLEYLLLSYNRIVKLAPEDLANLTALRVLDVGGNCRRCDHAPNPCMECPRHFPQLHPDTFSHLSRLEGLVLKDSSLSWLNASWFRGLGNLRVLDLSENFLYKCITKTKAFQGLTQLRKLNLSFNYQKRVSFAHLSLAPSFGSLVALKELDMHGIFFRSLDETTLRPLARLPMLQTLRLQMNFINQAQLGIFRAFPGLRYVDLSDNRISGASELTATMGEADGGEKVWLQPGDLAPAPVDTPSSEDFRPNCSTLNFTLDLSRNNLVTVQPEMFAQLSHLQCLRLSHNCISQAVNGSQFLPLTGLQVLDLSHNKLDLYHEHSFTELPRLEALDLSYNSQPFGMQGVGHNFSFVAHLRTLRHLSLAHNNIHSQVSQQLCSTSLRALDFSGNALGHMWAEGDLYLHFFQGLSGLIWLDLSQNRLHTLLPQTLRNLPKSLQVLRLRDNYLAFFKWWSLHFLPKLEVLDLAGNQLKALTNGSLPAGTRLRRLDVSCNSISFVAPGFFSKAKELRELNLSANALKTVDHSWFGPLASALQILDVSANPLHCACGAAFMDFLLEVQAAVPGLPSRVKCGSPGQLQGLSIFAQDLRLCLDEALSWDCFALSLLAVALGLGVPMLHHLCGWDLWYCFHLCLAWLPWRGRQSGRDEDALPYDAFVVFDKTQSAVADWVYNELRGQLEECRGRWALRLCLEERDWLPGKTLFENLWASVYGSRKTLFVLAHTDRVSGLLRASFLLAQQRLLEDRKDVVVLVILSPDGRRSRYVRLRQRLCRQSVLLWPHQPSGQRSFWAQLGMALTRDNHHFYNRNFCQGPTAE
Assay type: cell-based
Description: HEK293 cells were transfected by electroporation with vectors expressing the respective human TLR and a 6xNF-κB-luciferase reporter plasmid. Stable transfectants (3×10^4 cells/well) were incubated indicated amounts of ODN for 16 h at 37° C. in a humidified incubator. Each data point was done in triplicate. Cells were lysed and assayed for luciferase gene activity (using the BriteLite kit from Perkin-Elmer, Zaventem, Belgium). Stimulation indices were calculated in reference to reporter gene activity of medium without addition of ODN.

Substance | TLR9 stimulation (NF-κB luciferase activity, relative stimulation index)
(T*G*JU*C-G*T*T*L*)2doub-3mG (DNA TGNCGTTNNN; JU, 3'3'-branched doubler, chemistry not fully specified) [SEQ ID NO:96] | as active or more active than the unmodified SEQ ID NO:1
T*G*EU*C-G*EU*T*T*T*T*T*T*T*T*T*T*T*T*T*T (DNA TGNCGNTTTTTTTTTTTTTT; EU modifications, chemistry not fully specified) [SEQ ID NO:30] | significant increase in TLR9 activation
T*G*T*C-G*BVU*T*T*T*T*T*T*T*T*T*T*T*T*T*T (DNA TGTCGNTTTTTTTTTTTTTT; listed as DNA, chemistry not fully specified) [SEQ ID NO:154, B-class with 5-(2-bromo-vinyl)-uridine (BVU)] | more active in the assay than the parent sequence
T*G*JU*Z-G*T*T*T*T*T*T*T*T*T*T*T*T*T*T*T (DNA dT*dG*d[5IU]*d[5mC]dG*dT*dT*dT*dT*dT*dT*dT*dT*dT*dT*dT*dT*dT*dT*dT) [SEQ ID NO:140, B-class with 5-methyl-dC (Z)] | more active in the assay than the parent ODN
T*G*T*C-G*PU*T*T*T*T*T*T*T*T*T*T*T*T*T*T (DNA TGTCGNTTTTTTTTTTTTTT; 5-propynyl-dU, chemistry not fully specified) [SEQ ID NO:117, B-class with 5-proynyl-dU (PU)] | activity comparable to that of the parent sequence
T*G*BVU*C-G*T*T*T*T*T*T*T*T*T*T*T*T*T*T*T (DNA TGNCGTTTTTTTTTTTTTTT; listed as DNA, chemistry not fully specified) [SEQ ID NO:153, B-class with 5-(2-bromo-vinyl)-uridine (BVU)] | more active in the assay than the parent sequence
T*G*JU*C-E*T*T*T*T*T*T*T*T*T*T*T*T*T*T*T (DNA TGNCNTTTTTTTTTTTTTTT; JU, 7-deaza-dG, chemistry not fully specified) [SEQ ID NO:138, B-class with 7-deaza-dG (E)] | more active in the assay than the parent ODN
G*JU*C-G*JU*T-hex [SEQ ID NO:126] | greatly enhanced the activity
T*C-G-A-C-G-JU-C-G-JU-G-G*G*G*G (DNA dT*dCdGdAdCdGd[5IU]dCdGd[5IU]dGdG*dG*dG*dG) [SEQ ID NO:36, JU-modified A class] | increased stimulation of TLR9 above unmodified A and C class
T*G*JU*C-mG*T*T*T*T*T*T*T*T*T*T*T*T*T*T*T (DNA dT*dG*d[5IU]*dCmG*dT*dT*dT*dT*dT*dT*dT*dT*dT*dT*dT*dT*dT*dT*dT) [SEQ ID NO:112, 2′-O-methyl-modified B-class] | slightly more active
T*C*T*T*T*T*T*T*G*U*C-G*T*T*T*T*T*T*T*T*T*T (DNA dT*dC*dT*dT*dT*dT*dT*dT*dG*dU*dCdG*dT*dT*dT*dT*dT*dT*dT*dT*dT*dT) [SEQ ID NO:51, U-modified T class] | reduced stimulation of TLR9
T*mG*JU*C-mG*T*T*T*T*T*T*T*T*T*T*T*T*T*T*T (DNA dT*mG*d[5IU]*dCmG*dT*dT*dT*dT*dT*dT*dT*dT*dT*dT*dT*dT*dT*dT*dT) [SEQ ID NO:113, 2′-O-methyl-modified B-class] | slightly more active
JU*C-G*JU*C*G*T*T*T*T*A*C*G*G*C*G*C*C*G*T*G*C*C*G (DNA d[5IU]*dCdG*d[5IU]*dC*dG*dT*dT*dT*dT*dA*dC*dG*dG*dC*dG*dC*dC*dG*dT*dG*dC*dC*dG) [SEQ ID NO:44] | increased stimulation of TLR9 above unmodified A and C class
T*G*JU*C-I*T*T*T*T*T*T*T*T*T*T*T*T*T*T*T (DNA TGUCNTTTTTTTTTTTTTTT; DNA at 3, [5IU] at 3, linkages s3 o1 s15 (s phosphorothioate, o phosphodiester), other sugars and the base at N not given here; position 5 is inosine) [SEQ ID NO:139, B-class with inosine (I)] | more active in the assay than the parent ODN
T*C*G*JU*C-G*JU*T*T*T*A*C*G*G*C*G*C*C*G*T*G*C*C*G (DNA dT*dC*dG*d[5IU]*dCdG*d[5IU]*dT*dT*dT*dA*dC*dG*dG*dC*dG*dC*dC*dG*dT*dG*dC*dC*dG) [SEQ ID NO:45] | increased stimulation of TLR9 above unmodified A and C class
(T*G*JU*C-G*T*T*L*)2doub-teg (DNA TGNCGTTNNN; JU modification, 3'3'-branched doubler with TEG, chemistry not fully specified) [SEQ ID NO:101] | as active or more active than the unmodified SEQ ID NO:1; also recorded: more active than SEQ ID NO:96 AND 97
T*G*PU*C-G*T*T*T*T*T*T*T*T*T*T*T*T*T*T*T (DNA TGNCGTTTTTTTTTTTTTTT; 5-propynyl-dU, chemistry not fully specified) [SEQ ID NO:116, B-class with 5-proynyl-dU (PU)] | activity comparable to that of the parent sequence; also recorded: slightly improved over the parent sequence
T*C-G-A-C-G-JU-C-G-T-G-G*G*G*G (DNA dT*dCdGdAdCdGd[5IU]dCdGdTdGdG*dG*dG*dG) [SEQ ID NO:35, JU-modified A class] | increased stimulation of TLR9 above unmodified A and C class
(JU*C*G*T*T*C*G*L*)2doub-3mG (DNA NCGTTCGNNN; JU, 3'3'-branched doubler, chemistry not fully specified) [SEQ ID NO:97] | as active or more active than the unmodified SEQ ID NO:1
(JU*C*G*T*T*C*G*L*)2doub-teg (DNA d[5IU]*dC*dG*dT*dT*dC*dG*[HEG]*[2doub][TEG]; some compounds branched: two arms joined via doubler and TEG) [SEQ ID NO:102, 3′3′-branched] | as active or more active than the unmodified SEQ ID NO:1; also recorded: more active than SEQ ID NO:96 AND 97
T*G*6NB*C-G*T*T*T*T*T*T*T*T*T*T*T*T*T*T*T (DNA TGNCGTTTTTTTTTTTTTTT; DNA at 1, 2, 4, 5, 6, 7, 8, 9, 10, 11, 12, 13, 14, 15, 16, 17, 18, 19, 20, [6NB] at 3, linkages s3 o1 s15 (s phosphorothioate, o phosphodiester), other sugars not given here; further chemistry not fully specified) [SEQ ID NO:178, B-class with 6-nitro-benzimidazol (6NB)] | comparable with the unmodified parent sequence
T*G*EU*C-G*T*T*T*T*T*T*T*T*T*T*T*T*T*T*T (DNA TGNCGTTTTTTTTTTTTTTT; EU modification, chemistry not fully specified) [SEQ ID NO:42] | greater stimulation of TLR9 activity over control; also recorded: significant increase in TLR9 activation
T*G*CU*C-G*T*T*T*T*T*T*T*T*T*T*T*T*T*T*T (DNA TGNCGTTTTTTTTTTTTTTT; CU modification, chemistry not fully specified) [SEQ ID NO:41] | greater stimulation of TLR9 activity over control
T*G*BU*C-G*T*T*T*T*T*T*T*T*T*T*T*T*T*T*T (DNA dT*dG*d[5BrU]*dCdG*dT*dT*dT*dT*dT*dT*dT*dT*dT*dT*dT*dT*dT*dT*dT) [SEQ ID NO:10] | greater stimulation of TLR9 activity over control
T*G*U*C-G*T*T*T*T*T*T*T*T*T*T*T*T*T*T*T (DNA dT*dG*dU*dCdG*dT*dT*dT*dT*dT*dT*dT*dT*dT*dT*dT*dT*dT*dT*dT) [SEQ ID NO:16] | dramatically decreased activity

Source: patent US8580268B2, “CpG oligonucleotide analogs containing hydrophobic T analogs with enhanced immunostimulatory activity” (Coley Pharmaceutical GmbH, priority 2006, dated 2013)
